# EP0963755A2, “Use of benzopyranes for preventing allograft rejection” (Pfizer Products Inc., priority 1998, dated 1999)
# Test system: acute allograft rejection
# Experiment: murine cardiac ear pinna model of acute allograft rejection (non-vascularized cardiac tissue transplantation)
# Assay type: in vivo
# Settings: monotherapy; for Graft Survival, Mean ± Std Dev (mean survival days): day 0 to 17, BALB/C neonatal hearts into C3H/HeN ear pinna, assessed day 6 to 18
# Description: Methods: A rapid, facile 2-week murine bioassay of non-vascularized cardiac tissue transplantation,t he murine cardiac ear pinna model of acute allograft rejection, was used to evaluate the dose-response relationship of immunosuppressive drugs on allograft rejection. In this model, donor BALB/C (H2^d) neonatal hearts are transplanted into recipient C3H/HeN (H2^k) ear pinna pouches without vacular anastomoses. Survivinghearts are revascularized and usually resume beating on day 3 to 6. Untreated allografts failed prior to day 12 (MST = 10.5 + 0.9d, n=13). Isografts survived indefinitely. All compounds are given on day 0 to 17 COMPOUND P [(+)-2-[3,4-dihydro(3S,4R)-4-hydroxy-3-(4-phenyl-phenylmethyl)-7-(2H,1-benzopyran)]cyclopentane carboxylic acid] was given orally in 0.5% Methylcellulose. Grafts were assessed by visual examination for contraction on alternate days (from 6 to 18) and graft survival was defined as the post-transplant day on which contractions cease. Efficacy data from day 6 to 18 is presented as mean survival days (+SD) and was analyzed by Log Rank Analysis. Graft survival values were determined at day 18. Any graft surviving at day 18 was censored for statistical purposes.
structure (smiles),measurement,setting,value
"O=C(O)C1CCCC1c1ccc2c(c1)OC[C@H](Cc1ccc(-c3ccccc3)cc1)[C@H]2O (single isomer, unassigned; (+)) [COMPOUND P]",efficacy as a single agent in acute rejection (graft survival on day 18),"highest dose, 300 mg/kg d",significant (p<0.01)
same,efficacy as a single agent in acute rejection (graft survival on day 18),"lower doses tested (200, 100, and 30 mg/kg)",not at the lower doses tested
same,"Graft Survival, Mean ± Std Dev (mean survival days)",30 mg/kg/d orally in 0.5% Methylcellulose,11.0 ± 1.1 days
same,"Graft Survival, Mean ± Std Dev (mean survival days)",100 mg/kg/d orally in 0.5% Methylcellulose,10.3 ± 0.7 days
same,"Graft Survival, Mean ± Std Dev (mean survival days)",200 mg/kg/d orally in 0.5% Methylcellulose,10.3 ± 0.7 days
same,"Graft Survival, Mean ± Std Dev (mean survival days)",300 mg/kg/d orally in 0.5% Methylcellulose,11.8 ± 1.1 days
